Assay results reported in patent US11040108B2, “Amino acid- and peptide-steroid conjugates and use thereof” (BRANDEIS UNIVERSITY, priority 2016, dated 2021).
Read-outs that look alike come from different tables or passages of the source.

Assays:
[1] = tested on: Kuramochi ovarian cancer cells; experiment: MTT assay, cell viability of Kuramochi; type: cell-based; settings: read-out: IC50 against Kuramochi
Description: An MTT assay was used to test the cytotoxicity. All different cell lines were seeded in 96-well plates at 1×10^5 cells/well for 24 hours followed by removal of the culture medium and subsequent addition of culture medium containing different concentrations of the precursors. At designated time (24/48/72 hours), 10 μL MTT solution (5 mg/mL) was added to each well and incubated at 37° C. for another 4 hours, and then 100 μL of SDS-HCl solution was added to stop the reduction reaction and dissolve the purple formazan. The absorbance of each well at 595 nm was measured by a multimode microplate reader. The cytotoxicity assay was performed three times and the average value of the three measurements was taken.
Additional cell viability assays were carried out using conjugates 1a and 1b, optionally with 3, against HepG2 human liver carcinoma cells, Saos-2 osteosarcoma cells, T98G glioblastoma cells, HS-5 (normal bone marrow stromal cells), A2780 ovarian cancer cells (parental line to A2780cis), and Kuramochi ovarian cancer cells. Conjugate 1a was particularly effective against ovarian and cervical cancer cells.

[2] = tested on: cell death receptors (CD95, DR3, DR5, TNFR1, TNFR2) on A2780cis cells; experiment: Antibody staining of cell death receptors (CLSM); type: cell-based, human; settings: 1a 12.5 μM, 12 or 24 hours
Description: Procedure recommended by ABCAM for antibody staining was used. Cells were seeded (100,000-200,000 cell/3.5 cm confocal dish) and attachment was allowed (24 hours). Cells were incubated with 12.5 μM of precursor 1a for 12 hours or 24 hours. Then the cells were washed with PBS buffer three times and fixed by 4% formaldehyde for 15 minutes. Fixed cells were then washed with PBS buffer three times and incubated in 1.0% BSA/10% normal goat serum/0.3M glycine in 0.1% PBS-Tween for 1 hour to permeabilize the cells and block non-specific protein-protein interactions. Then they were washed with PBS buffer three times and incubated with the primary antibody (diluted 1/100, overnight at 4° C.). Then they were washed with PBS buffer three times and exposed to the secondary antibody (ab150077 Alexa Fluor® 488 goat anti-rabbit IgG (H+L), green) at 2 μg/ml (diluted 1/1000) for 1 hour. Hoechst 33342 was used to stain the cell nuclei (blue). The sample was washed with PBS buffer three times and mounted for imaging.
Antibody staining was used to examine the extrinsic cell death signaling molecules induced by the assemblies of 1b. […]

[3] = tested on: Src, Akt, p-SAPK/JNK in A2780cis cell lines; experiment: Expression of Src, Akt and p-SAPK/JNK (CLSM, Western blot); type: cell-based, human
Description: (§1) Further exploration of the mode of action of 1a against A2780cis and HeLa cells was carried out via Western blot for the following ER stress markers: CHOP, Bip, PDI, IRE1α, Calnexin, Erol-Lα, PERK, and β-actin; or p-SAPK/JNK. Western blot was carried out via gel electrophoresis at […] for 1.5 hrs, and then transferring the protein on the gel to PVDF membranes for overnight at […] (4° C.). After that, the membrane was incubated with primary antibodies (obtained from Cell Signaling Technology) overnight at 4° C. The membrane was then incubated with secondary antibodies for 1 h at room temperature. This was followed by the reaction with ECL solutions for 10 minutes, and analysis of the results by autoradiography. Generation of ROS was detected in CLSM images via DHE emissions in exposed cells. CLSM imaging was carried out at the excitation of 543 nm and DHE emission was detected at the wavelength at 575 nm to 625 nm; or detection of anti-phospho-SRC and anti-phospho-Akt.
In addition, 1a causes down regulation of cell survival proteins, Akt (Alexander, “Inhibiting the Akt Pathway in Cancer Treatment,” Pharmacy & Therapeutics 36(4): 225-227 (2011), which is hereby incorporated by reference in its entirety) and Src (Irby et al., “Role of Src Expression and Activation in Human Cancer,” Oncogene 19(49):5636-5642 (2000), which is hereby incorporated by reference in its entirety). […]

[4] = tested on: ER stress markers and ROS in A2780cis and HeLa cells; experiment: Western blot of ER stress markers and CLSM detection of ROS; type: cell-based, human; settings: 1a 12.5 μM, 12 hours for ROS
Description: as §1

lipid rafts in HeLa cell = experiment: Laurdan staining of lipid rafts, HeLa; type: cell-based, human; settings: 1a 25 μM, 12 hours
[5] = tested on: lipid rafts in A2780cis cells; experiment: Laurdan staining of lipid rafts, A2780cis; type: cell-based, human; settings: 1a 12.5 μM, 12 hours, 10 μM laurdan
Description: Considering that cholesterol is the basic component of lipid rafts, dynamic assemblies in cell membrane (Simons et al., “Functional Rafts in Cell Membranes,” Nature 387:569 (1997), which is hereby incorporated by reference in its entirety), laurdan, a commonly used probe for the polarity membrane (Parasassi et al., “Quantitation of Lipid Phases in Phospholipid Vesicles by the Generalized Polarization of Laurdan Fluorescence,” Biophys. J. 60:179 (1991), which is hereby incorporated by reference in its entirety), was used to examine the changes of lipid rafts upon the EISA of […]. Without treatment of 1a, the fluorescence of laurdan dispersed relatively evenly in the whole cell membrane (FIG. 8C).

CC(C)CCC[C@@H](C)C1CC[C@H]2[C@@H]3CC=C4CC(OC(=O)NC(Cc5ccc(OP(=O)(O)O)cc5)C(=O)O)CC[C@]4(C)[C@H]3CC[C@]12C (stereo partly drawn) [1a, Cholesterol-(phospho)D-Tyr]
IC50 ([1]; 48 hours): 19 µM | IC50 ([1]; 72 hours): 13 µM | clustering of DR3 or TNF-R1 [2]: rather moderate | clustering of DR5 [2]: significant clustering | expression of Src and Akt ([3]; 1a 12.5 μM, 24 hours): downregulates | p-SAPK/JNK expression levels ([3]; 24 hour treatment, Western blot): enhanced | ER stress markers and ROS generation [4]: induces cell apoptosis via ER stress and generation of ROS | number of green fluorescent puncta in cell membrane (laurdan, lipid rafts) (lipid rafts in HeLa cell): increased considerably | laurdan fluorescence in cell membrane (lipid rafts) [5]: increased inhomogeneity of the fluorescence
